Key:
[1] = Inhibition of Blk expressed in mouse BAF3 cells assessed as cytotoxicity
[2] = Inhibition of JAK3 expressed in mouse BAF3 cells assessed as cytotoxicity

Q: Which IC50 [1] does the source give for C=CC(=O)Nc1ccc2ncnc(Nc3cccc(Br)c3)c2c1 here?
A: > 10 µM

Q: And the IC50 [2]?
A: > 10 µM

Source: BindingDB's records for doi:10.1016/j.bmcl.2008.07.062 (The Scripps Research Institute, 2008)
